Source: patent publication EP4477653A1 (Perha Pharmaceuticals, priority 2023, dated 2024)
pIC50: −log10 of the molar value. Like-named read-outs stand apart in the source and are kept apart here.

Tests used:
LogD (HPLC) = assay type: physicochemical; conditions: by HPLC; Table 2
[1] = target: T1, human recombinant A3AR (expressed in HEK-293 cells) (Homo sapiens, UniProt P0DMS8); experiment: Adenosine receptors antagonism assay (Eurofins), [125I]-AB-MECA radioligand competition; assay type: binding
T1 construct: host or cells: HEK-293 cells
T1 sequence (P0DMS8 1-318): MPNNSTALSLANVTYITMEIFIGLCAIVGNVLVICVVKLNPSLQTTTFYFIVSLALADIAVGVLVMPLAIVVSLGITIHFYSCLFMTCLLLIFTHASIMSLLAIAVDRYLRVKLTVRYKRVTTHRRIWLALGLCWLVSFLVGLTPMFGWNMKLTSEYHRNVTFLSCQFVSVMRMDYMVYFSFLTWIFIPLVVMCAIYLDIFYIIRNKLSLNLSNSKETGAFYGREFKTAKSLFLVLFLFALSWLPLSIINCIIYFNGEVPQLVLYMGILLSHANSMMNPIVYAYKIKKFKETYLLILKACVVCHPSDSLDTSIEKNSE

[2] = [125I]-AB-MECA 0.15 nM, r.t., 120 min; IC50 from dose-response curves; read-out: Potency Class A3AR
[3] = read-out: Potency Class A3AR; [125I]-AB-MECA 0.15 nM, r.t., 120 min; IC50 from dose-response curves

chromatographic logD (LogD (HPLC)) | pIC50 [1, 2] | SMILES | pIC50 [1, 3]
3.09 | 6.00 to 7.00 | COC1CCC(Nc2cc(NCc3ccccc3)c3nnc(C(C)C)n3n2)CC1 (racemic) [compound 120, N8-benzyl-3-isopropyl-N6-(4-methoxycyclohexyl)-[1,2,4]triazolo[4,3-b]pyridazine-6,8-diamine] | 
2.3 | 7.00 to 8.00 | CC(C)c1nnc2c(NCc3ccccc3)cc(NCc3cnn(C)c3)nn12 [compound 140, N8-benzyl-3-isopropyl-N6-[(1-methylpyrazol-4-yl)methyl]-[1,2,4]triazolo[4,3-b]pyridazine-6,8-diamine] | 
3.84 | 8.00 to 9.00 | CC(C)c1nnc2c(NCc3ccccc3)cc(NC3CCCC3)nn12 [compound 118, N8-benzyl-N6-cyclopentyl-3-isopropyl-[1,2,4]triazolo[4,3-b]pyridazine-6,8-diamine] | 
2.36 | 7.00 to 8.00 | CC(C)c1nnc2c(NCc3ccccc3)cc(NCc3cccnc3)nn12 [compound 132, N8-benzyl-3-isopropyl-N6-(3-pyridylmethyl)-[1,2,4]triazolo[4,3-b]pyridazine-6,8-diamine] | 
4.42 | 8.00 to 9.00 | CCC(CC)CNc1cc(NCc2ccccc2)c2nnc(C(C)C)n2n1 [compound 126, N8-benzyl-N6-(2-ethylbutyl)-3-isopropyl-[1,2,4]triazolo[4,3-b]pyridazine-6,8-diamine] | 
3.5 | 8.00 to 9.00 | CC(C)c1nnc2c(NCc3ccccc3)cc(NCc3ccccc3)nn12 [compound 130, N6,N8-dibenzyl-3-isopropyl-[1,2,4]triazolo[4,3-b]pyridazine-6,8-diamine] | 
2.52 | 6.00 to 7.00 | Cc1cc(C)nc(CNc2cc(NCc3ccccc3)c3nnc(C(C)C)n3n2)n1 [compound 145, N8-benzyl-N6-[(4,6-dimethylpyrimidin-2-yl)methyl]-3-isopropyl-[1,2,4]triazolo[4,3-b]pyridazine-6,8-diamine] | 
3.47 | 7.00 to 8.00 | CC(C)c1nnc2c(NCc3ccccc3)cc(NC3CCC3)nn12 [compound 117, N8-benzyl-N6-cyclobutyl-3-isopropyl-[1,2,4]triazolo[4,3-b]pyridazine-6,8-diamine] | 
2.3 | 6.00 to 7.00 | Cc1cnc(CNc2cc(NCc3ccccc3)c3nnc(C(C)C)n3n2)cn1 [compound 139, N8-benzyl-3-isopropyl-N6-[(5-methylpyrazin-2-yl)methyl]-[1,2,4]triazolo[4,3-b]pyridazine-6,8-diamine] | 
3.78 | 7.00 to 8.00 | CC(C)c1nnc2c(NCc3ccccc3)cc(NCCc3ccccc3)nn12 [compound 127, N8-benzyl-3-isopropyl-N6-(2-phenylethyl)-[1,2,4]triazolo[4,3-b]pyridazine-6,8-diamine] | 
2.27 | 6.00 to 7.00 | CC(C)c1nnc2c(NCc3ccccc3)cc(Nc3nccn3C)nn12 [compound 144, N8-benzyl-3-isopropyl-N6-(1-methylimidazol-2-yl)-[1,2,4]triazolo[4,3-b]pyridazine-6,8-diamine] | 
4.57 | 7.00 to 8.00 | CC(C)c1nnc2c(NCc3ccccc3)cc(NC3CCCCCC3)nn12 [compound 121, N8-benzyl-N6-cycloheptyl-3-isopropyl-[1,2,4]triazolo[4,3-b]pyridazine-6,8-diamine] | 
2.51 | 7.00 to 8.00 | CC(C)c1nnc2c(NCc3ccccc3)cc(NCc3ccccn3)nn12 [compound 131, N8-benzyl-3-isopropyl-N6-(2-pyridylmethyl)-[1,2,4]triazolo[4,3-b]pyridazine-6,8-diamine] | 
4.17 | 7.00 to 8.00 | CC(C)c1nnc2c(NCc3ccccc3)cc(NC3CCCCC3)nn12 [compound 119, N8-benzyl-N6-cyclohexyl-3-isopropyl-[1,2,4]triazolo[4,3-b]pyridazine-6,8-diamine] | 
4.08 | 7.00 to 8.00 | CC(C)c1nnc2c(NCc3ccccc3)cc(NC3Cc4ccccc4C3)nn12 [compound 138, N8-benzyl-N6-indan-2-yl-3-isopropyl-[1,2,4]triazolo[4,3-b]pyridazine-6,8-diamine] | 
4.6 | 7.00 to 8.00 | CC(C)c1nnc2c(NCc3ccccc3)cc(NCC3CCCCC3)nn12 [compound 124, N8-benzyl-N6-(cyclohexylmethyl)-3-isopropyl-[1,2,4]triazolo[4,3-b]pyridazine-6,8-diamine] | 
4.1 | 7.00 to 8.00 | CC(C)c1nnc2c(NCc3ccccc3)cc(NC3CCc4ccccc43)nn12 (racemic) [compound 146, N8-benzyl-N6-indan-1-yl-3-isopropyl-[1,2,4]triazolo[4,3-b]pyridazine-6,8-diamine] | 
2.74 | 6.00 to 7.00 | CC(C)c1nnc2c(NCc3ccccc3)cc(NCC3CCOCC3)nn12 [compound 125, N8-benzyl-3-isopropyl-N6-(tetrahydropyran-4-ylmethyl)-[1,2,4]triazolo[4,3-b]pyridazine-6,8-diamine] | 
3.68 | 6.00 to 7.00 | CC(C)c1nnc2c(NCc3ccccc3)cc(NCCOc3ccccc3)nn12 [compound 128, N8-benzyl-3-isopropyl-N6-(2-phenoxyethyl)-[1,2,4]triazolo[4,3-b]pyridazine-6,8-diamine] | 
2.87 | 6.00 to 7.00 | CC(C)c1nnc2c(NCc3ccccc3)cc(NCC3CCCO3)nn12 (racemic) [compound 142, N8-benzyl-3-isopropyl-N6-(tetrahydrofuran-2-ylmethyl)-[1,2,4]triazolo[4,3-b]pyridazine-6,8-diamine] | 
4.2 | 6.00 to 7.00 | Cc1cc(C)cc(CNc2cc(NCc3ccccc3)c3nnc(C(C)C)n3n2)c1 [compound 141, N8-benzyl-N6-[(3,5-dimethylphenyl)methyl]-3-isopropyl-[1,2,4]triazolo[4,3-b]pyridazine-6,8-diamine] | 
3.33 | 7.00 to 8.00 | CC(C)c1nnc2c(NCc3ccccc3)cc(NCC3CC3)nn12 [compound 122, N8-benzyl-N6-(cyclopropylmethyl)-3-isopropyl-[1,2,4]triazolo[4,3-b]pyridazine-6,8-diamine] | 
1.95 | 6.00 to 7.00 | CC(C)c1nnc2c(NCc3ccccc3)cc(NCc3nccn3C)nn12 [compound 129, N8-benzyl-3-isopropyl-N6-[(1-methylimidazol-2-yl)methyl]-[1,2,4]triazolo[4,3-b]pyridazine-6,8-diamine] | 

SMILES | chromatographic logD (LogD (HPLC)) | pIC50 [1, 2] | pIC50 [1, 3]
CC(C)c1nnc2c(NCc3ccccc3)cc(NCC3(C)CCCCC3)nn12 [compound 136] | 4.88 |  | 7.00 to 8.00
CC(C)c1nnc2c(NCc3ccccc3)cc(NCC3CCC3)nn12 [compound 123] | 3.86 |  | 7.00 to 8.00
